Measured values reported in the supplement of paper PMC6045584.
± gives the standard deviation of the averaged measurements.

Experiments:
FORETINIB = compound: COc1cc2c(Oc3ccc(NC(=O)C4(C(=O)Nc5ccc(F)cc5)CC4)cc3F)ccnc2cc1OCCCN1CCOCC1 [FORETINIB]; assay: surviving fraction relative to DMSO-only wells; higher = less growth inhibition; settings: exposure time: 5 days
How it was run: (§1)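 Log-phase tumour cell lines, 250–500 cells per well in 384-well plates, received inhibitors at 0.5, 1, 5, 10, 50, 100, 500 and 1000 nM continuously for five days, starting 24 hours after seeding. Viability was quantified with CellTiter-Glo luminescence and normalised to the median of DMSO-only wells to give surviving fraction. Three screens were run per line, and a line stayed in only with replicate Pearson r >0.7 and median Z' >0.3.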

[1] = compound: CNCc1ccc(-c2[nH]c3cc(F)cc4c3c2CCNC4=O)cc1; assay: as above; settings: exposure time: 5 days
How it was run: as §1

Test System	surviving fraction (FORETINIB; 0.5 nM)	surviving fraction (FORETINIB; 1 nM)	surviving fraction (FORETINIB; 5 nM)	surviving fraction (FORETINIB; 10 nM)	surviving fraction (FORETINIB; 50 nM)	surviving fraction (FORETINIB; 100 nM)	surviving fraction (FORETINIB; 500 nM)	surviving fraction (FORETINIB; 1000 nM)	surviving fraction ([1]; 0.5 nM)	surviving fraction ([1]; 1 nM)	surviving fraction ([1]; 5 nM)	surviving fraction ([1]; 10 nM)	surviving fraction ([1]; 50 nM)	surviving fraction ([1]; 100 nM)	surviving fraction ([1]; 500 nM)	surviving fraction ([1]; 1000 nM)
CHLA90 AUTONOMIC GANGLIA	0.983 ± 0.048	1.1 ± 0.24	0.977 ± 0.069	0.909 ± 0.045	0.962 ± 0.13	0.941 ± 0.12	0.62 ± 0.11	0.493 ± 0.12	0.97 ± 0.049	1.01 ± 0.068	0.961 ± 0.039	0.987 ± 0.043	0.993 ± 0.095	1.03 ± 0.023	1.01 ± 0.038	1.03 ± 0.033
HCC1954 BREAST	0.975 ± 0.071	1.16 ± 0.25	1.09 ± 0.08	1.14 ± 0.1	0.965 ± 0.14	0.903 ± 0.05	0.6953 ± 0.006	0.418 ± 0.068	0.795 ± 0.12	0.797 ± 0.11	0.947 ± 0.039	1.04 ± 0.17	0.61 ± 0.082	0.549 ± 0.019	0.557 ± 0.0088	0.464 ± 0.012
SUM149.B1*.S BREAST	1.13 ± 0.068	1.19 ± 0.078	1.12 ± 0.022	1.11 ± 0.021	1.11 ± 0.059	1.09 ± 0.054	0.855 ± 0.033	0.515 ± 0.067	1.12 ± 0.023	1.1 ± 0.022	1.07 ± 0.045	1.1 ± 0.045	1.01 ± 0.04	1.02 ± 0.033	0.94 ± 0.053	1 ± 0.056
T47D BREAST	1.02 ± 0.032	1.08 ± 0.056	1.08 ± 0.023	1.08 ± 0.029	1.04 ± 0.025	1.08 ± 0.04	0.897 ± 0.064	0.898 ± 0.028	0.999 ± 0.015	1.04 ± 0.019	1.04 ± 0.021	0.999 ± 0.019	0.969 ± 0.033	0.954 ± 0.046	0.911 ± 0.0085	0.943 ± 0.023
SUM159 BREAST	1.13 ± 0.038	1.12 ± 0.046	1.11 ± 0.038	1.09 ± 0.028	1.071 ± 0.0061	1.06 ± 0.018	1.01 ± 0.018	0.566 ± 0.037	1.09 ± 0.024	1.1 ± 0.027	1.09 ± 0.035	1.07 ± 0.02	1.06 ± 0.044	1.04 ± 0.0053	1.06 ± 0.019	1.05 ± 0.018
CADOES1 SOFT TISSUE	0.986 ± 0.23	0.887 ± 0.17	0.988 ± 0.25	0.876 ± 0.043	0.947 ± 0.02	0.795 ± 0.1	0.109 ± 0.011	0.088 ± 0.0062	1 ± 0.21	0.975 ± 0.19	0.903 ± 0.081	0.838 ± 0.045	1.02 ± 0.068	0.856 ± 0.12	0.799 ± 0.14	0.715 ± 0.22
SG32 HEADNECK	1.15 ± 0.13	1.24 ± 0.36	1.27 ± 0.19	1.22 ± 0.041	1.03 ± 0.1	1.17 ± 0.26	0.374 ± 0.011	0.264 ± 0.0095	0.993 ± 0.27	1.01 ± 0.2	0.984 ± 0.17	1.02 ± 0.035	0.704 ± 0.061	0.716 ± 0.14	0.682 ± 0.075	0.566 ± 0.17
BT20 BREAST	1.11 ± 0.032	1.14 ± 0.13	1.12 ± 0.026	1.13 ± 0.045	1.22 ± 0.12	1.13 ± 0.037	0.382 ± 0.091	0.136 ± 0.017	1.09 ± 0.095	1.05 ± 0.055	1.03 ± 0.081	1.04 ± 0.059	0.792 ± 0.14	0.814 ± 0.046	0.815 ± 0.11	0.872 ± 0.014
OSHN BONE	1.08 ± 0.05	1.07 ± 0.031	1.08 ± 0.018	1.05 ± 0.041	1.03 ± 0.035	1.01 ± 0.039	0.735 ± 0.057	0.0927 ± 0.013	1.03 ± 0.028	1.06 ± 0.028	1.01 ± 0.031	1.02 ± 0.048	0.945 ± 0.031	0.933 ± 0.029	0.959 ± 0.02	0.857 ± 0.036
C33A CERVIX	1.02 ± 0.059	1.06 ± 0.086	1.1 ± 0.042	1.14 ± 0.098	1.03 ± 0.041	1.04 ± 0.047	0.596 ± 0.057	0.508 ± 0.029	0.991 ± 0.071	0.993 ± 0.078	1.02 ± 0.085	0.937 ± 0.095	1.09 ± 0.13	0.963 ± 0.041	1.25 ± 0.024	0.707 ± 0.0089
SKBR3 BREAST	1.11 ± 0.02	1.14 ± 0.15	1.08 ± 0.063	1.08 ± 0.15	1.13 ± 0.066	0.982 ± 0.064	0.886 ± 0.065	0.868 ± 0.11	0.907 ± 0.11	0.895 ± 0.12	0.9 ± 0.14	0.841 ± 0.11	0.703 ± 0.1	0.813 ± 0.052	0.733 ± 0.14	0.734 ± 0.026
22RV1 PROSTATE	1.02 ± 0.065	1.04 ± 0.033	0.98 ± 0.15	0.984 ± 0.043	0.965 ± 0.12	0.99 ± 0.17	0.611 ± 0.061	0.511 ± 0.015	1.09 ± 0.051	1.13 ± 0.09	1.02 ± 0.075	0.968 ± 0.12	1.28 ± 0.32	1.04 ± 0.061	1.014 ± 0.0031	1.11 ± 0.24
LNCAP PROSTATE	1.04 ± 0.022	1.02 ± 0.046	0.968 ± 0.075	1.01 ± 0.1	0.997 ± 0.074	1.04 ± 0.039	0.261 ± 0.03	0.189 ± 0.028	1.09 ± 0.059	1.14 ± 0.038	1.01 ± 0.095	0.907 ± 0.093	1.02 ± 0.047	0.946 ± 0.013	0.969 ± 0.056	0.73 ± 0.057
CASKI CERVIX	0.902 ± 0.072	0.929 ± 0.013	0.962 ± 0.019	0.943 ± 0.018	0.988 ± 0.062	0.976 ± 0.06	0.322 ± 0.026	0.188 ± 0.0057	0.893 ± 0.022	0.968 ± 0.014	0.992 ± 0.015	0.939 ± 0.024	0.89 ± 0.03	0.898 ± 0.077	0.923 ± 0.12	0.848 ± 0.034
HU09 BONE	0.923 ± 0.11	1.01 ± 0.063	1 ± 0.08	0.958 ± 0.082	0.625 ± 0.1	0.496 ± 0.087	0.201 ± 0.016	0.0877 ± 0.0029	1.04 ± 0.068	0.977 ± 0.052	1.04 ± 0.072	0.991 ± 0.066	0.965 ± 0.24	0.889 ± 0.13	0.757 ± 0.051	0.669 ± 0.074
MDAMB157 BREAST	0.967 ± 0.045	0.987 ± 0.035	1.1 ± 0.095	0.975 ± 0.0044	0.971 ± 0.074	0.934 ± 0.081	0.537 ± 0.085	0.231 ± 0.02	0.959 ± 0.026	0.91 ± 0.025	1.04 ± 0.053	1.03 ± 0.09	0.921 ± 0.088	1 ± 0.12	0.73 ± 0.03	0.691 ± 0.015
HCC78 LUNG	0.779 ± 0.1	0.92 ± 0.14	0.89 ± 0.12	0.752 ± 0.091	0.257 ± 0.06	0.259 ± 0.039	0.179 ± 0.025	0.0403 ± 0.0068	1 ± 0.17	0.867 ± 0.05	1.12 ± 0.22	1.13 ± 0.2	0.828 ± 0.093	1.02 ± 0.15	0.936 ± 0.091	0.911 ± 0.043
HCC1395 BREAST	1.07 ± 0.09	1.08 ± 0.11	1.26 ± 0.076	1.17 ± 0.048	1.09 ± 0.083	1.02 ± 0.034	0.939 ± 0.063	0.796 ± 0.085	0.901 ± 0.016	0.981 ± 0.02	1.09 ± 0.011	0.92 ± 0.058	0.873 ± 0.12	0.828 ± 0.071	0.736 ± 0.041	0.809 ± 0.028
RDES SOFT TISSUE	1.31 ± 0.058	1.25 ± 0.13	1.17 ± 0.088	1.07 ± 0.065	0.989 ± 0.12	0.892 ± 0.092	0.226 ± 0.013	0.106 ± 0.0059	1.15 ± 0.059	1.09 ± 0.17	1.02 ± 0.049	1.06 ± 0.042	0.918 ± 0.19	1.06 ± 0.089	1.14 ± 0.036	1.38 ± 0.15
MDAMB231 BREAST	0.974 ± 0.018	0.985 ± 0.013	0.998 ± 0.017	1 ± 0.03	0.971 ± 0.0077	0.9367 ± 0.0039	0.489 ± 0.0095	0.449 ± 0.0084	0.937 ± 0.013	0.967 ± 0.027	0.971 ± 0.06	0.959 ± 0.021	0.917 ± 0.015	0.891 ± 0.037	0.824 ± 0.02	0.764 ± 0.0086
